Values after ≈ are worked out from the molar mass of the structure shown. Read-outs that look alike come from different tables or passages of the source.
Columns and labels:
[1] = tested on: all Candida strains; test: MIC range over all Candida strains tested; assay type: cell-based; conditions: Table 13 strains
[2] = tested on: ergosterol biosynthesis; test: 13C-acetate incorporation into ergosterol; assay type: cell-based, Candida albicans; conditions: drug at about its MIC, added after the first 15 minutes
[3] = tested on: C. parapsilosis; test: In vitro antifungal activity vs. yeasts (MIC/MFC); assay type: cell-based; conditions: Lodderomyces parapsilosis; C. parapsilosis (n = 2); 90% inhibition endpoint
[4] = tested on: Candida albicans; test: In vitro antifungal activity vs. yeasts (MIC/MFC); assay type: cell-based; conditions: Candida albicans (n = 8); 90% inhibition endpoint
[5] = tested on: C. lipolytica; test: In vitro antifungal activity vs. yeasts (MIC/MFC); assay type: cell-based; conditions: Yarrowia lipolytica
[6] = tested on: C. guilliermondii; test: In vitro antifungal activity vs. yeasts (MIC/MFC); assay type: cell-based; conditions: Meyerozyma guilliermondii; C. guilliermondii (n = 1); 90% inhibition endpoint
[7] = tested on: C. lusitaniae; test: In vitro antifungal activity vs. yeasts (MIC/MFC); assay type: cell-based; conditions: Clavispora lusitaniae
[8] = tested on: C. albicans; test: Effect on the morphology of growing Candida albicans cultures; assay type: cell-based; conditions: inhibiting concentrations
[9] = tested on: C. krusei; test: In vitro antifungal activity vs. yeasts (MIC/MFC); assay type: cell-based; conditions: Pichia kudriavzevii; C. krusei (n = 1); 90% inhibition endpoint
[10] = tested on: C. albicans; test: Rat model of systemic candidiasis, single intravenous infusion, liver burden; assay type: in vivo; conditions: rats
[11] = tested on: Malassezia furfur; test: In vitro antifungal activity vs. yeasts (MIC/MFC); assay type: cell-based; conditions: Malassezia furfur
[12] = tested on: C. albicans; test: Rat model of systemic candidiasis, single oral administration, kidney burden; assay type: in vivo; conditions: rats
[13] = tested on: C. glabrata; test: In vitro antifungal activity vs. yeasts (MIC/MFC); assay type: cell-based; conditions: Nakaseomyces glabratus; C. glabrata (n = 1); 90% inhibition endpoint
[14] = tested on: C. albicans; test: Fatty acid competition (antagonism) in 96-well plates; conditions: 48 h
[15] = tested on: A. flavus; test: Susceptibility of clinical Aspergillus isolates (MIC); assay type: cell-based; conditions: Aspergillus flavus; A. flavus (n = 2); CLSI M38-A2; 50% growth inhibition; 24 h; read-out: MIC50
Experimental: (§1) The efficacy of compound IV″ was investigated on 563 clinical isolates of 33 human fungal pathogens. […] For species with n≧10, the MIC90 (MIC, minimal inhibitory concentration) is given as ng/ml. For species with n≦10, the MIC range is given as ng/ml. 24 h and 48 h reads are indicated (Table 1).
(§2) Susceptibilities were determined according to the CLSI reference method M38-A2.

[16] = tested on: A. nidulans; test: as above; assay type: cell-based; conditions: 24 h
Experimental: as §1, §2

[17] = tested on: A. versicolor; test: as above; assay type: cell-based; conditions: Aspergillus versicolor; A. versicolor (n = 3); CLSI M38-A2; 50% growth inhibition; 24 h; read-out: MIC50
Experimental: as §1, §2

[18] = tested on: A. niger; test: as above; assay type: cell-based; conditions: A. niger (n = 6), CLSI M38-A2, 50% growth inhibition, 24 h, read-out: MIC50
Experimental: as §1, §2

[19] = tested on: A. fumigatus; test: as above; assay type: cell-based; conditions: Aspergillus fumigatus; A. fumigatus (n = 20); CLSI M38-A2; 50% growth inhibition; 24 h; read-out: MIC50
Experimental: as §1, §2

[20] = tested on: A. terreus; test: as above; assay type: cell-based; conditions: Aspergillus terreus; A. terreus (n = 5); CLSI M38-A2; 50% growth inhibition; 24 h; read-out: MIC50
Experimental: as §1, §2

[21] = tested on: H. capsulatum; test: microbe, parasite or virus in culture; assay type: cell-based; conditions: Histoplasma capsulatum, 120 h
[22] = tested on: B. dermatitidis; test: Susceptibility of clinical dimorphic fungi (MIC); assay type: cell-based; conditions: Blastomyces dermatitidis; B. dermatitidis (n = 30); CLSI M38-A2; 50% growth reduction; MIC read at 96 h
[23] = tested on: Coccidioides spp.; test: microbe, parasite or virus in culture; assay type: cell-based; conditions: Coccidioides, 48 h
[24] = tested on: C. dubliniensis; test: Susceptibility of clinical isolates (MIC, broth dilution); assay type: cell-based; conditions: Candida dubliniensis; C. dubliniensis (n = 25); M27-A3, 24 hrs; read at 50% inhibition (potassium salt, Voriconazole), 100% (Amphotericin), MEC (Caspofungin); read-out: MIC90
Experimental: as §1
(§3) The in vitro efficacy of antifungal compounds is determined in susceptibility assays, which are indicative for the spectrum and potency of a compound. Susceptibilities are reported as minimal inhibitory concentrations (MIC, as ng/ml or μg/ml) required to inhibit growth to a defined degree compared to the drug free control. The MIC90 defines the MIC required to inhibit growth for ≧90% of the strains of a population tested.
(§4) The MIC90 was calculated for the indicated species.

[25] = tested on: C. tropicalis; test: as above; assay type: cell-based; conditions: Candida tropicalis; C. tropicalis (n = 35); M27-A3, 24 hrs; read at 50% inhibition (potassium salt, Voriconazole), 100% (Amphotericin), MEC (Caspofungin); read-out: MIC90
Experimental: as §1, §3, §4

[26] = tested on: C. glabrata; test: as above; assay type: cell-based; conditions: Nakaseomyces glabratus
Experimental: as §1, §3, §4

[27] = tested on: C. lusitaniae; test: as above; assay type: cell-based; conditions: Clavispora lusitaniae; C. lusitaniae (n = 24); M27-A3, 24 hrs; read at 50% inhibition (potassium salt, Voriconazole), 100% (Amphotericin), MEC (Caspofungin); read-out: MIC90
Experimental: as §1, §3, §4

[28] = tested on: C. parapsilosis; test: as above; assay type: cell-based; conditions: Lodderomyces parapsilosis
Experimental: as §1, §3, §4

[29] = tested on: C. albicans; test: as above; assay type: cell-based; conditions: Candida albicans; C. albicans (n = 20); M27-A3, 24 hrs; read at 50% inhibition (potassium salt, Voriconazole), 100% (Amphotericin), MEC (Caspofungin); read-out: MIC90
Experimental: as §1, §3, §4

[30] = tested on: C. krusei; test: as above; assay type: cell-based; conditions: Pichia kudriavzevii; C. krusei (n = 27); M27-A3, 24 hrs; read at 50% inhibition (potassium salt, Voriconazole), 100% (Amphotericin), MEC (Caspofungin); read-out: MIC90
Experimental: as §1, §3, §4

[31] = tested on: Staphylococcus aureus 29213; test: In vitro Antibacterial Activity; assay type: cell-based
[32] = tested on: C. glabrata, Fluconazole, Voriconazole, Itraconazole and/or Caspofungin resistant isolates; test: Susceptibility of resistant clinical isolates (MIC, broth dilution); assay type: cell-based; conditions: Nakaseomyces glabratus; C. glabrata resistant (n = 21): isolates resistant to Fluconazole, Itraconazole, Voriconazole and Caspofungin; read-out: MIC90
Experimental: as §1, §4

[33] = tested on: Enterobacter faecalis 29212; test: In vitro Antibacterial Activity; assay type: cell-based
[34] = tested on: Escherichia coli 700; test: In vitro Antibacterial Activity; assay type: cell-based
[35] = Stability of diyne salts on storage (HPLC content); assay type: physicochemical
Experimental: Potassium (Z)-14-(furan-2-yl)tetradeca-9-en-11,13-diynoate was kept as a crystalline solid for 6 month at 2-8° C. The content of potassium (Z)-14-(furan-2-yl)tetradeca-9-en-11,13-diynoate was determined by HPLC against a reference sample kept at −20° C. After 6 months of storage characteristics such as colour, water content, XRPD profile, of the solid had not changed and it was still a beige solid. […] Also no change in the impurity profile was observed after 6 months storage.
Potassium (Z)-14-(furan-2-yl)tetradeca-9-en-11,13-diynoate was also kept as a crystalline solid for 6 month at 25° C., 60% RH. Analysis was performed as described above. After 6 months of storage characteristics of the solid has not changed and it was still a beige solid. […] Also no change in the impurity profile was observed after 6 months storage.
Potassium (Z)-14-(furan-2-yl)tetradeca-9-en-11,13-diynoate was also kept as a crystalline solid for 6 month at 40° C., 75% RH. Analysis was performed as described above. After 6 months of storage the appearance of the solid had changed to a brown solid. Furthermore, a decrease in the content of potassium (Z)-14-(furan-2-yl)tetradeca-9-en-11,13-diynoate to 96% was observed as analysed by HPLC.
Sodium (Z)-14-(furan-2-yl)tetradeca-9-en-11,13-diynoate was kept as an amorphous solid at room temperature. […] Furthermore the salt was dissolved in an aqueous solution and already after few days the content of sodium (Z)-14-(furan-2-yl)tetradeca-9-en-11,13-diynoate was reduced by 35%, thus proving strong instability of the amorphous salt form.

For `OC(Cn1cncn1)(Cn1cncn1)c1ccc(F)cc1F` [Fluconazole, reference compound], the “MIC range for all Candida strains” value [1] was 0.125 to 16 mg/L, the “net biosynthesis of ergosterol (13C-acetate incorporation)” value [2] was “inhibited the incorporation of acetate into ergosterol” and the MIC [3] was 1 mg/L (≈ 3.27 µM). The MIC [4] was 1 mg/L (≈ 3.27 µM), the MIC [5] was 0.125 mg/L (≈ 0.408 µM) and the MIC [6] was 4 mg/L (≈ 13.1 µM). The MIC [7] was 0.125 mg/L (≈ 0.408 µM), the “effect on hyphal tube formation” value ([8]; microscopy) was “did not affect hyphal tube formation” and the “effect on cell growth” value ([8]; microscopy and MTT) was “permitted fungal growth (albeit at a reduced rate)”. The MIC [9] was 16 mg/L (≈ 52.2 µM), the “reduction of tissue burden (cfu/g tissue), comparator” value ([10]; liver, vs vehicle at 24 hours, dose not given) was 93% and the MIC [11] was 0.125 mg/L (≈ 0.408 µM). The “reduction of tissue burden (cfu/g tissue), comparator” value ([12]; vs vehicle at 24 hours, dose not given) was 90% and the MIC [13] was 2 mg/L (≈ 6.53 µM).
For `C[C@@H](c1ncncc1F)[C@](O)(Cn1cncn1)c1ccc(F)cc1F` [Voriconazole], the “effect of oleic acid / stearic acid on susceptibility” value [14] was “oleic acid did not decrease the susceptibility”, the MIC50 [15] was 0.5 mg/L (≈ 1.43 µM) and the MIC50 [16] was 0.125 mg/L (≈ 0.358 µM). For the same compound, the MIC50 [17] was 0.25 mg/L (≈ 0.716 µM), the MIC50 [18] was 1 mg/L (≈ 2.86 µM) and the MIC50 [19] was 0.25 mg/L (≈ 0.716 µM). For the same compound, the MIC50 [20] was 0.25 mg/L (≈ 0.716 µM), the MIC90 [21] was 0.125 mg/L (≈ 0.358 µM) and the MIC90 [22] was 0.25 mg/L (≈ 0.716 µM). It also gave an MIC90 [23] of 0.125 mg/L (≈ 0.358 µM), an MIC90 [24] of 0.016 mg/L and an MIC90 [25] of 0.03 mg/L. For the same compound, the MIC90 ([26]; 24 h) was 0.125 mg/L (≈ 0.358 µM), the MIC90 [27] was 0.03 mg/L and the MIC90 ([28]; 24 h) was 0.125 mg/L (≈ 0.358 µM). For the same compound, the MIC90 [29] was 0.03 mg/L and the MIC90 [30] was 0.5 mg/L.
For Gentamicin [reference compound], the MIC90 [31] was “Gentamicin—0.78 μg/ml”.
With `CC[C@H](C)C[C@H](C)CCCCCCCCC(=O)N[C@H]1C[C@@H](O)[C@@H](NCCN)NC(=O)[C@@H]2[C@@H](O)CCN2C(=O)[C@H]([C@H](O)CCN)NC(=O)[C@H]([C@H](O)[C@@H](O)c2ccc(O)cc2)NC(=O)[C@@H]2C[C@@H](O)CN2C(=O)[C@H]([C@@H](C)O)NC1=O` [Caspofungin] the “effect of oleic acid / stearic acid on susceptibility” value [14] was “oleic acid did not decrease the susceptibility”, the MIC90 [21] was 2 mg/L (≈ 1.83 µM) and the MIC90 [22] was 4 mg/L (≈ 3.66 µM). For the same compound, the MIC90 [23] was 0.5 mg/L (≈ 0.457 µM), the MIC90 [32] was 2 mg/L (≈ 1.83 µM) and the MIC90 [24] was 1 mg/L. For the same compound, the MIC90 [25] was 1 mg/L, the MIC90 ([26]; C. glabrata (n = 25), M27-A3, 24 hrs, read at 50% inhibition (potassium salt, Voriconazole), 100% (Amphotericin), MEC (Caspofungin), read-out: MIC90) was 2 mg/L and the MIC90 [27] was 2 mg/L. The MIC90 ([28]; C. parapsilosis (n = 37), M27-A3, 24 hrs, read at 50% inhibition (potassium salt, Voriconazole), 100% (Amphotericin), MEC (Caspofungin), read-out: MIC90) was 8 mg/L and the MIC90 [30] was 2 mg/L.
Compound `CC1(C)S[C@@H]2[C@H](NC(=O)[C@H](N)c3ccccc3)C(=O)N2[C@H]1C(=O)O` [Ampicillin, reference compound] has an MIC90 [33] of 0.78 mg/L (≈ 2.23 µM) and an MIC90 [34] of 3.12 mg/L (≈ 8.94 µM).
In the case of `O=C([O-])CCCCCCC/C=C\C#CC#Cc1ccco1.[Na+]` [Compound V″, sodium (Z)-14-(furan-2-yl)tetradeca-9-en-11,13-diynoate], the “decrease of liver fungal burden (CFU per gram tissue)” value ([10]; single intravenous infusion 12 mg/kg, 24 h) is reported as 93%, the appearance after storage ([35]; amorphous solid at room temperature, short term storage) is reported as “the colour darkened” and the “reduction of content in aqueous solution” value ([35]; aqueous solution, after few days) is reported as 35%. The “decrease of kidney fungal burden (CFU per gram tissue)” value ([12]; single oral dose 17 mg/kg, 6 h) was 57%.

From patent US8722910B2, “Diyne compositions” (Evolva AG, priority 2009, dated 2014)
